Experimental data reported in ChEMBL document CHEMBL5465560, “Selectivity Literature for EUbOPEN Chemogenomic Library” (2024).

What was measured:
[1] = target: Protein-tyrosine kinase 6 (Homo sapiens, UniProt Q13882); assay: Selectivity interaction (KinomeScan (DiscoverX)) EUB0001079a PTK6; conditions: at 1 µM
[2] = target: T1, Alpha-2C adrenergic receptor (Homo sapiens) (UniProt P18825); assay: Selectivity interaction (GPCR panel (PDSP screen)) EUB0001079a ADRA2C; conditions: at 10 µM
T1 sequence (whole entry): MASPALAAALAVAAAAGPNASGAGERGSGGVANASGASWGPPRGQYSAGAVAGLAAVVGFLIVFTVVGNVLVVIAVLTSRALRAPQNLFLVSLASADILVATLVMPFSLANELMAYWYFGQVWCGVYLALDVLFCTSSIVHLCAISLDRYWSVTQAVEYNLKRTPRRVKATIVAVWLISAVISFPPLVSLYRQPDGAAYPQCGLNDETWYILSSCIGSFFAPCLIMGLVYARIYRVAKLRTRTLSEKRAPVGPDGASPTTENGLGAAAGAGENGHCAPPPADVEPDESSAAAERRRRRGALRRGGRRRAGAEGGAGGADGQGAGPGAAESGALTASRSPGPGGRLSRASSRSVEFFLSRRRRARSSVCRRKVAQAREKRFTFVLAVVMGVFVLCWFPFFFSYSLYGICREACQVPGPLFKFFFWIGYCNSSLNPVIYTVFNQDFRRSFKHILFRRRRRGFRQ

[3] = target: Serine/threonine-protein kinase Nek7 (Homo sapiens) (UniProt Q8TDX7); assay: Selectivity interaction (Kinase panel (Invitrogen)) EUB0000639a NEK7; conditions: at 200 nM
Serine/threonine-protein kinase Nek7 (Homo sapiens), sequence (Q8TDX7 whole entry, looked up, the tested form may be a part): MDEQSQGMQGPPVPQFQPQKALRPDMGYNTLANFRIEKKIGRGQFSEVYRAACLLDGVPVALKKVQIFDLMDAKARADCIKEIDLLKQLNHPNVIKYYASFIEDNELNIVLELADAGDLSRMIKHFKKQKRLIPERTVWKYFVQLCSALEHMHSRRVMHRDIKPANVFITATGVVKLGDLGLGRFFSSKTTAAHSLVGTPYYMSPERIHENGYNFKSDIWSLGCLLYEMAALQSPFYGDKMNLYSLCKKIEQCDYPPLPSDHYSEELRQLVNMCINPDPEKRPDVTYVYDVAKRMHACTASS

[4] = target: LIM domain kinase 2 (Homo sapiens) (UniProt P53671); assay: Selectivity interaction (KinomeScan (DiscoverX)) EUB0000092b LIMK2; conditions: at 10 µM
LIM domain kinase 2 (Homo sapiens), sequence (P53671 whole entry, looked up, the tested form may be a part): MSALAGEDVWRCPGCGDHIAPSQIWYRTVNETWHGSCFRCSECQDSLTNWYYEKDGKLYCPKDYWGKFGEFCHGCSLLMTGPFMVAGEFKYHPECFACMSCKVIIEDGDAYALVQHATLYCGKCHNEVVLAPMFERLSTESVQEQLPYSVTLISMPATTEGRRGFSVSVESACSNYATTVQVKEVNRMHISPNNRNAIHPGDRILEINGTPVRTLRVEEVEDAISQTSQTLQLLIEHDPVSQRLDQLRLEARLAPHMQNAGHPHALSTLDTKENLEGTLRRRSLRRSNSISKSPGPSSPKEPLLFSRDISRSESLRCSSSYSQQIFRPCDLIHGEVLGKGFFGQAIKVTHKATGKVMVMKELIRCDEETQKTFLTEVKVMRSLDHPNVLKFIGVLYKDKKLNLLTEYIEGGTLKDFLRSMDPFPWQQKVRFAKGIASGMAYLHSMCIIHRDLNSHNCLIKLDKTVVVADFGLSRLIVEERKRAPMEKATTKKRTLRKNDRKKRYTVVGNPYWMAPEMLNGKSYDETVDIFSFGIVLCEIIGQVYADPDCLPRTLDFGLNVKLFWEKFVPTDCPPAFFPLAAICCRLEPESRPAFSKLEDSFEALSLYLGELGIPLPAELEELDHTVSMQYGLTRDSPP

[5] = target: T2, Tyrosine-protein kinase ZAP-70 (Homo sapiens) (UniProt P43403); conditions: at 10 µM
T2 sequence (whole entry): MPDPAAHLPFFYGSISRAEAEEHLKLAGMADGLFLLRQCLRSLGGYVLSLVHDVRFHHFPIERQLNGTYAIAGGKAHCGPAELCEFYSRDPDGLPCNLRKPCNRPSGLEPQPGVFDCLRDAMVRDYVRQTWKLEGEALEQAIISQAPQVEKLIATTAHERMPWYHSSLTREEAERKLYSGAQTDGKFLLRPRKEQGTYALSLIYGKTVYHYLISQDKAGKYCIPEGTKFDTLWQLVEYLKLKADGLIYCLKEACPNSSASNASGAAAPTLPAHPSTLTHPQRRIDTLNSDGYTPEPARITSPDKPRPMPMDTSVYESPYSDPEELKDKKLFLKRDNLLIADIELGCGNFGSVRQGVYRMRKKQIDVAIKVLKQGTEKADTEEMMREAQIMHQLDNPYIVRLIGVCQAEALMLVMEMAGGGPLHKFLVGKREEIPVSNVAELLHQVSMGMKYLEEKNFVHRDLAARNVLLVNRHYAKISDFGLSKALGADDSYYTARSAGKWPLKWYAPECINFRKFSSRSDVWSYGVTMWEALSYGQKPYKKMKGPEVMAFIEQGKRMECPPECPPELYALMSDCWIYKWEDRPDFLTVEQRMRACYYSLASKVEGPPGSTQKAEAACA

[6] = target: Mitogen-activated protein kinase 7 (Homo sapiens) (UniProt Q13164); assay: Selectivity interaction (ActivX KiNativ screen (ex vivo kinase selectivity in human PBMCs)) EUB0001619a MAPK7; type: cell-based; conditions: PBMC, at 1 µM
Mitogen-activated protein kinase 7 (Homo sapiens), sequence (Q13164 2-816 limits assumed): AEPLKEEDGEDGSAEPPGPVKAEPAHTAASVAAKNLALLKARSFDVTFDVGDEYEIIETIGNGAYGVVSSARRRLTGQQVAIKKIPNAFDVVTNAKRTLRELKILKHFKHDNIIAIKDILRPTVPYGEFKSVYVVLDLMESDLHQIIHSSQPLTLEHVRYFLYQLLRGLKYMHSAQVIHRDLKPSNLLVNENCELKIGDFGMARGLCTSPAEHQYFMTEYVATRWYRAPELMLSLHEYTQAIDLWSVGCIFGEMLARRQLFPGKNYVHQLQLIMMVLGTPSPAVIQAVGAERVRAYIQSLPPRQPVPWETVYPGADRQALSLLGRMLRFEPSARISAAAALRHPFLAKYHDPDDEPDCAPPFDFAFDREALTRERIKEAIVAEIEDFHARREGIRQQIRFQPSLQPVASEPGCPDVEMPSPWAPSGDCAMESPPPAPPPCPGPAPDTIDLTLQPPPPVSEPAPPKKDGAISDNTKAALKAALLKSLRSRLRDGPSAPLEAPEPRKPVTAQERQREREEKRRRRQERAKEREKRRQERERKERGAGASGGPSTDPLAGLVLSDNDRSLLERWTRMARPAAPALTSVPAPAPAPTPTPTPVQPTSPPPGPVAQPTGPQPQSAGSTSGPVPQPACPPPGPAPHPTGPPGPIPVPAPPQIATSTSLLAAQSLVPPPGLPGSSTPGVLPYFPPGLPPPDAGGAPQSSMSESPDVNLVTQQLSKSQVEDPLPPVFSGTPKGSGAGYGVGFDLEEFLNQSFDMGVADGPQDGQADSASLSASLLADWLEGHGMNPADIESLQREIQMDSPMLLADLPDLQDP

[7] = target: T3, Dual specificity mitogen-activated protein kinase kinase 6 (Homo sapiens) (UniProt P52564); assay: Selectivity interaction (ActivX KiNativ screen (ex vivo kinase selectivity in human PBMCs)) EUB0001619a MAP2K6; type: cell-based; conditions: PBMC, at 1 µM
T3 sequence (whole entry): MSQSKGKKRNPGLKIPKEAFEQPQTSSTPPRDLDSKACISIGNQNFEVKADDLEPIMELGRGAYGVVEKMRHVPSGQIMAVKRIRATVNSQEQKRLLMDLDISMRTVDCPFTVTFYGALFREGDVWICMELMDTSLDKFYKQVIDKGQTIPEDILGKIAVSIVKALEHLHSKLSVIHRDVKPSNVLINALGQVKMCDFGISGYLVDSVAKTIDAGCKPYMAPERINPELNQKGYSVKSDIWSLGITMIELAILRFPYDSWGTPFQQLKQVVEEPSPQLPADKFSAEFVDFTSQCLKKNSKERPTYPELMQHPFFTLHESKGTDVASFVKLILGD

[8] = target: T4, Homeodomain-interacting protein kinase 4 (Homo sapiens) (UniProt Q8NE63); assay: Selectivity interaction (KinomeScan (DiscoverX)) EUB0000655a HIPK4; conditions: at 10 µM
T4 sequence (whole entry): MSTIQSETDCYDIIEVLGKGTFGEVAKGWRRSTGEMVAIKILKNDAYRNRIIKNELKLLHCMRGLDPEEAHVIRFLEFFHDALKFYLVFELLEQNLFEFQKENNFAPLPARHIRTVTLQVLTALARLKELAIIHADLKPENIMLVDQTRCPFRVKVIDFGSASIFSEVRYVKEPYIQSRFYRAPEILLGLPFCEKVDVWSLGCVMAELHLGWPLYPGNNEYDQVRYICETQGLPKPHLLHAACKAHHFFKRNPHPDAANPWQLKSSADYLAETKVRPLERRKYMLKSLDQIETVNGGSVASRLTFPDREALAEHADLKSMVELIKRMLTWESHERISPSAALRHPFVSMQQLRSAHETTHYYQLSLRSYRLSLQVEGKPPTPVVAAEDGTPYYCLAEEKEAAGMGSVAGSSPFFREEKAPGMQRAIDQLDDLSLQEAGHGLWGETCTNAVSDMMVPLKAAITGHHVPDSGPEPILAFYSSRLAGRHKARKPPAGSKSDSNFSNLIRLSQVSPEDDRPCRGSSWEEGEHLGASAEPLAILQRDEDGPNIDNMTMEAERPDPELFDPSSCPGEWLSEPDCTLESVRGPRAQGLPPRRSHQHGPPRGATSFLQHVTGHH

[9] = target: T5, Serine/threonine-protein kinase Nek2 (Homo sapiens) (UniProt P51955); assay: Selectivity interaction (Kinase panel (Z-LYTE Assay)) EUB0001632a NEK2; conditions: at 10 µM
T5 sequence (whole entry): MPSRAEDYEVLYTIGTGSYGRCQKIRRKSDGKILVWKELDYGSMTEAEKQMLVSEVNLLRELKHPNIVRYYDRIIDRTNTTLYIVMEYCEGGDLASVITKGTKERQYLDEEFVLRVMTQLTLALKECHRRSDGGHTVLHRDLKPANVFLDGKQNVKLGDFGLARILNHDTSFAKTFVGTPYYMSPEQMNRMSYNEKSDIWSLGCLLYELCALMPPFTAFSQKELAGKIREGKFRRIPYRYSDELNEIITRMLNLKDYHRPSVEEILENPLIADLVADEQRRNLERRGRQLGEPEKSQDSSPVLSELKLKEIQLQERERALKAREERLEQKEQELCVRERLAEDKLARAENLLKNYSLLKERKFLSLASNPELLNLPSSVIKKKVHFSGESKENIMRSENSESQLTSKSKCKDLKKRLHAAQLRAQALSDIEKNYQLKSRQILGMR

Protein-tyrosine kinase 6, sequence (Q13882 whole entry, looked up): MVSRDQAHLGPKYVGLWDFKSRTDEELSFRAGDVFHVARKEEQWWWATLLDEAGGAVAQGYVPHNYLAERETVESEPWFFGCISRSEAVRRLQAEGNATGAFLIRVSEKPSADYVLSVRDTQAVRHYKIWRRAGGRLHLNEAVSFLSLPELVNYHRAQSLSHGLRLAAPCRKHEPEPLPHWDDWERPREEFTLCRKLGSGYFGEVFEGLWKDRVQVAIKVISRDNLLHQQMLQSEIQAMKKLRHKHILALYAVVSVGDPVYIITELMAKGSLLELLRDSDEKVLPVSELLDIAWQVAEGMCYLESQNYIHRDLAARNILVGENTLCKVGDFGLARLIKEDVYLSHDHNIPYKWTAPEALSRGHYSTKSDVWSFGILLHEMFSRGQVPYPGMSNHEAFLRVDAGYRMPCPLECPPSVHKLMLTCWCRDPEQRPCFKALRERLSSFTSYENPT

Q: How did the % of control [1] turn out when `Nc1cnc(N2CCc3cc(S(=O)(=O)Nc4c(F)cc(Cl)cc4F)cc(N4CCCC4=O)c32)nc1` [TP-020n] was run?
A: The % of control was 100%.

Q: And the % of inhibition [2]?
A: Its % of inhibition is -14.3%.

Q: `CC[C@@H]1[C@H](F)C(=O)N[C@@H]1COc1nccc2cc(C(N)=O)c(OC)cc12` [ZIMLOVISERTIB] was tested. Which % of inhibition [3] did it give?
A: The % of inhibition was -1.03%.

Q: `CCC(=O)N1CCN(c2ccc(-n3c(=O)ccc4cnc5ccc(-c6cnc7ccccc7c6)cc5c43)cc2C(F)(F)F)CC1` was tested. Which % of control [4] did it give?
A: The % of control was 4.8%.

Q: For `Cc1cc([C@@H](C)Nc2ccccc2C(=O)O)c2nc(N3CCOCC3)cc(=O)n2c1` [AZD-6482], which % of control [5] is on record?
A: Its % of control is 100%.

Q: Which results are given for `N#Cc1cccc(-c2c[nH]c3ncnc(N4CCOCC4)c23)c1`?
A: % of inhibition [6]: -6%; % of inhibition [7]: 9%

Q: `CN(C)CCOc1ccc(-c2nc(-c3ccncc3)c(-c3ccc4c(c3)CC/C4=N\O)[nH]2)cc1` was tested. Which % of control [8] did it give?
A: Its % of control is 18%.

Q: `Cn1cc(-n2cnc3c(NCc4nc5cc(Cl)c(Cl)cc5[nH]4)nc(N4CCOCC4)nc32)cn1` was tested. Which % of control [9] did it give?
A: Its % of control is 1.81%.
